Assay [1] deals with T1, 5-hydroxytryptamine receptor 2C (Homo sapiens, UniProt P28335).
T1 sequence (P28335 whole entry): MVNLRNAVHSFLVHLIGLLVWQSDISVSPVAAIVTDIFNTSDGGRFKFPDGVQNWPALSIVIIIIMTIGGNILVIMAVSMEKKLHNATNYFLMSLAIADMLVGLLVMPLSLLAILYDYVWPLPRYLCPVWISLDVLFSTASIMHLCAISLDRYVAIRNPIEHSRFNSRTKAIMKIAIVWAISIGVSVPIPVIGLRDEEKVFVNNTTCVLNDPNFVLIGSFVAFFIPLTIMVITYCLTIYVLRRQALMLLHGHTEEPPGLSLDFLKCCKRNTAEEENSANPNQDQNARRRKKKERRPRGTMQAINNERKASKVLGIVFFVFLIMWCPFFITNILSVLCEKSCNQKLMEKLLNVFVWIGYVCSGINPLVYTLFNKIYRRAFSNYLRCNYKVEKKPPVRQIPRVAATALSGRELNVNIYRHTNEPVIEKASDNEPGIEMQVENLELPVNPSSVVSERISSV
Kind of assay: Displacement of [3H]5-HT from human 5HT2C receptor expressed in CHO cells. In kind it is cell-based. (In general: In a radioligand displacement assay an active substance lowers the binding of a labelled ligand.)

Assay [2] deals with T2, 5-hydroxytryptamine receptor 2A (Homo sapiens, UniProt P28223). Kind of assay: Displacement of [3H]5-HT from human 5HT2A receptor expressed in CHO cells. In kind it is cell-based.
T2 sequence (P28223 whole entry): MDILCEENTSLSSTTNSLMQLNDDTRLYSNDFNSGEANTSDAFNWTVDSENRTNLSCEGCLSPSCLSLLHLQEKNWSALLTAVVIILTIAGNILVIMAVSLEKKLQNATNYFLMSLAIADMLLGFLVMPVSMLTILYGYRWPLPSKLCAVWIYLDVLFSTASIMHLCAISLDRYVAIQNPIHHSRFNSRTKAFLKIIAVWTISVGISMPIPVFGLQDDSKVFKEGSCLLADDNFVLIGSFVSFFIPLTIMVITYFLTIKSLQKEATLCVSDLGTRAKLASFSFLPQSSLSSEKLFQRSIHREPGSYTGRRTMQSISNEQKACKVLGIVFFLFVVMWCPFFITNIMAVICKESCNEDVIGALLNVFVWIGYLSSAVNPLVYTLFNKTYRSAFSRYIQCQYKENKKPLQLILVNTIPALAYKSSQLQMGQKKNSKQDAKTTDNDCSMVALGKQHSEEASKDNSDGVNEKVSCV
Assay [3] addresses Serotonin 2 receptors; 5-HT2a & 5-HT2c (Homo sapiens) (UniProt P28223+P28335). Put plainly: Selectivity for human 5HT2A to human 5HT2C.
Assay [4] deals with T1, 5-hydroxytryptamine receptor 2C. Kind of assay: Agonist activity at human cloned 5HT2C receptor expressed in CHO cells assessed as myo-[3H]inositol hydrolysis. In kind it is functional, cell-based.
The target of assay [5] is T2, 5-hydroxytryptamine receptor 2A. Put plainly: Agonist activity at human cloned 5HT2A receptor expressed in CHO cells assessed as myo-[3H]inositol hydrolysis. Format: functional, cell-based.
In assay [6] the target is T3, 5-hydroxytryptamine receptor 2C (Homo sapiens) (UniProt P28335).
T3 sequence (whole entry): T1 sequence (P28335 whole entry)
Put plainly: Intrinsic activity at human cloned 5HT2C receptor expressed in CHO cells assessed as maximal stimulation of 10 uM 5HT-induced myo-[3H]inositol hydrolysis. Format: functional, cell-based.

Assay [7] has as its target T2, 5-hydroxytryptamine receptor 2A. Put plainly: Intrinsic activity at human cloned 5HT2A receptor expressed in CHO cells assessed as maximal stimulation of 10 uM 5HT-induced myo-[3H]inositol hydrolysis. In kind it is functional, cell-based.
The target in assay [8] is T4, 5-hydroxytryptamine receptor 2B (Homo sapiens, UniProt P41595). Put plainly: Intrinsic activity at human cloned 5HT2B receptor expressed in HEK293-EBNA cells assessed as maximal stimulation of 10 uM 5HT-induced myo-[3H]inositol hydrolysis. In kind it is functional, cell-based.
T4 sequence (P41595 whole entry): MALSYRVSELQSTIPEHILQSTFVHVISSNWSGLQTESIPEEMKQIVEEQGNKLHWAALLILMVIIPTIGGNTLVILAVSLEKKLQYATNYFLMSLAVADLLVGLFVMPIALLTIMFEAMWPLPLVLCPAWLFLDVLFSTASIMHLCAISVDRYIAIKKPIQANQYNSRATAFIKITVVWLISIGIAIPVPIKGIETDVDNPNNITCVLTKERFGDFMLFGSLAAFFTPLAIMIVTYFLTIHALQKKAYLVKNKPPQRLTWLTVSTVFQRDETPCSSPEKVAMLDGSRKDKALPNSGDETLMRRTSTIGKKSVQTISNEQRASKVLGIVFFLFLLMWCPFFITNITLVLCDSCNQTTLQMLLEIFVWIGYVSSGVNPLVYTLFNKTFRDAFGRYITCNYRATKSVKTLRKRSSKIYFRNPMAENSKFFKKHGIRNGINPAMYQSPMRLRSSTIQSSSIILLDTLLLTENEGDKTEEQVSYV
Another assay is filed under the species Homo sapiens. Kind of assay: Selectivity ratio of EC50 for human cloned 5HT2B receptor over EC50 for human cloned 5HT2C receptor.
Assay [9] has as its system Rattus norvegicus. Put plainly: Induction of penile erection in sc dosed rat. In kind it is functional. As to conditions: read-out: MED.
The target of assay [10] is T4, 5-hydroxytryptamine receptor 2B.
Description: Agonist activity at human cloned 5HT2B receptor expressed in HEK293-EBNA cells assessed as myo-[3H]inositol hydrolysis
In assay [11] the test system is Rattus norvegicus. Put plainly: Induction of penile erection in po dosed rat. In kind it is functional. As to conditions: read-out: MED.

Experimental findings from ChEMBL document CHEMBL1143993, “Synthesis and structure-activity relationships of a series of substituted 2-(1H-furo[2,3-g]indazol-1-yl)ethylamine derivatives as 5-HT2C receptor agonists” (Bioorg Med Chem, 2008) are described below.

Serotonin 2 receptors; 5-HT2a & 5-HT2c (Homo sapiens), sequence (P28223 whole entry, looked up, one chain of several): as the sequence (P28223 whole entry) above

As usually defined, the Ki is a measure of affinity in units of concentration, obtained from inhibition or displacement. Read a low Ki as a stronger hold on the target. Regarding `C[C@H](N)Cn1ncc2ccc3sccc3c21`, the inhibition constant Ki was found to be 1.4 nM in assay [1] and 6.7 nM in assay [2]. For the same compound, the Ratio Ki in assay [3] was determined as 5.

Consider `C[C@H](N)Cn1ncc2cc(Cl)c(Cl)cc21`, for which the inhibitory constant (Ki) in assay [1] was 7.5 nM; in [2] it was 11 nM. In addition, in [3], the Ratio Ki was determined as 1.

In the case of `C[C@H](N)Cn1ncc2ccc(F)cc21`, the Ki in assay [1] was 32 nM; in [2], 82 nM. Also, in assay [3], the Ratio Ki was 3.

For `CCCc1nn(C[C@H](C)N)c2c1ccc1occc12`, the results for the inhibition constant (Ki) in assay [1] and in assay [2] were 25 nM and 64 nM, respectively. For the same compound, the Ratio Ki in [3] was 3.

Regarding `CCc1nn(C[C@H](C)N)c2c1ccc1occc12`, the values for the Ki in assay [1] and in assay [2] were 2.5 nM and 11 nM, respectively. For the same compound, in [3], the Ratio Ki is 4.

Turning to `COc1ccc2cnn(C[C@H](C)N)c2c1`, the Ki in assay [1] stood at 16 nM; in assay [2], 37 nM. In assay [3], the Ratio Ki was determined as 2.

Take `CCc1cc2c(ccc3c(CC)nn(C[C@H](C)N)c32)o1`: the values for the inhibition constant Ki in assay [1] and in assay [2] were 2.7 nM and 51 nM, respectively. Moreover, the Ratio Ki in [3] amounted to 19.

Consider `Cc1nn(C[C@H](C)N)c2c1ccc1occc12`, for which the inhibitory constant (Ki) was 13 nM in assay [1] and 17 nM in assay [2]. Further, the Ratio Ki in assay [3] amounted to 1.

With `COc1ccc2cnn(C[C@H](C)N)c2c1Cl`, the figures for the inhibition constant (Ki) in assay [1] and in [2] were 140 nM and 1200 nM, respectively. Moreover, in assay [3], the Ratio Ki is 9.

In the case of `C[C@H](N)Cn1ncc2ccc3occc3c21`, the Ki in [1] was found to be 0.2 nM; in assay [2] it was 0.78 nM. In addition, in assay [3], the Ratio Ki came to 4.

For the compound `C[C@H](N)Cn1ncc2cc(F)ccc21`, the values for the Ki in assay [1] and in [2] were 43 nM and 89 nM, respectively. The Ratio Ki in assay [3] is 2.

For the compound `Cc1cc2c(ccc3cnn(C[C@H](C)N)c32)o1`, the Ki is 0.2 nM in [1] and 0.78 nM in [2]. In addition, the Ratio Ki in assay [3] turned out to be 4.

For `C[C@H](N)Cn1ncc2ccc3ocnc3c21`, the figures for the Ki in [1] and in assay [2] were 59 nM and 47 nM, respectively. In addition, the Ratio Ki in [3] was found to be 1.

As for `CC(C)c1cc2c(ccc3cnn(C[C@H](C)N)c32)o1`, the Ki turned out to be 20 nM in assay [1] and 87 nM in assay [2]. Further, the Ratio Ki in [3] is 4.

Usually EC50 stands for the concentration needed to bring the measured effect to its halfway point. The term Emax denotes the maximal effect, on the per cent scale that the assay sets. Consider `C[C@H](N)Cn1ccc2cc(F)c(Cl)cc21`, for which the Ki in assay [1] is 26 nM; in [2], 39 nM. Besides, the Ratio Ki in assay [3] came out at 2. Besides, the values for the EC50 in assay [4], in assay [5] and in assay [10] were 52 nM, 400 nM and 2.4 nM, respectively. Also, the Emax was determined as 88% in assay [6], 91% in [7] and 130% in assay [8]. In the assay listed under Homo sapiens, the Ratio EC50 is 0.05. In addition, the minimal effective dose in the assay with Rattus norvegicus [9] worked out at 0.3 mg/kg.

Compound `COc1nn(C[C@H](C)N)c2c1ccc1occc12` returned an inhibition constant (Ki) in assay [1] of 0.51 nM. Moreover, in [3], the Ratio Ki worked out at 17. Also, the minimal effective dose in the assay with Rattus norvegicus [9] worked out at 0.1 mg/kg.

Consider `CCc1cc2c(ccc3cnn(C[C@H](C)N)c32)o1`, for which the Ki was 0.89 nM in [1] and 13 nM in [2]. Moreover, in [3], the Ratio Ki stood at 15. The EC50 in [4] was found to be 1 nM; in assay [5] it was 93 nM; in assay [10], 3.2 nM. Moreover, the Emax in assay [6] was found to be 76%; in assay [7], 97%; in assay [8], 110%. Moreover, the Ratio EC50 in the assay listed under Homo sapiens came out at 3.2. For the same compound, the results for the minimal effective dose in the assay on Rattus norvegicus [9] and in the assay on Rattus norvegicus [11] were 0.03 mg/kg and 0.3 mg/kg, respectively.

For `C[C@H](N)Cn1ncc2ccc(Cl)c(Cl)c21`, the results for the inhibition constant (Ki) in assay [1] and in assay [2] were 4 nM and 9.1 nM, respectively. The Ratio Ki in assay [3] is 2.

Regarding `CCc1cc2c(ccc3c(C)nn(C[C@H](C)N)c32)o1`, the inhibitory constant (Ki) in assay [1] was determined as 5 nM; in assay [2], 46 nM. Besides, the Ratio Ki in assay [3] came out at 9.

For `CCc1cc2c(ccc3c(OC)nn(C[C@H](C)N)c32)o1`, the Ki in assay [1] was determined as 12 nM; in assay [2] it was 38 nM. Also, the Ratio Ki in [3] came out at 3.
